Measured values reported in patent publication US7951824B2, “4-aryl-pyridine-2-carboxyamide derivatives” (Hoffman-La Roche Inc., priority 2006, dated 2011).
pKi: −log10 of the molar value.

Target: T1, human mGlu 5a receptor (Homo sapiens, UniProt P41594)
T1 construct: expressed in transfected cells; host or cells: EBNA cells (transient transfection), membrane homogenates
Assay: [3H]MPEP competition binding on membranes of EBNA cells transfected with human mGlu 5a receptor
Conditions: competition with [3H]MPEP (2 nM), 1 h at 4° C., EBNA cell membranes
Experimental: The pharmacological activity of the compounds was tested using the following method: For binding experiments, cDNA encoding human mGlu 5a receptor was transiently transfected into EBNA cells using a procedure described by Schlaeger and Christensen [Cytotechnology 15:1-13 (1998)]. Cell membrane homogenates were stored at −80° C. until the day of assay where upon they were thawed and resuspended and polytronised in 15 mM Tris-HCl, 120 mM NaCl, 100 mM KCl, 25 mM CaCl2, 25 mM MgCl2 binding buffer at pH 7.4 to a final assay concentration of 20 μg protein/well.
Saturation isotherms were determined by addition of twelve [^3H] MPEP concentrations (0.04-100 nM) to these membranes (in a total volume of 200 μd) for 1 h at 4° C. Competition experiments were performed with a fixed concentration of [^3H]MPEP (2 nM) and IC50 values of test compounds evaluated using 11 concentrations (0.3-10,000 nM). Incubations were performed for 1 h at 4° C.
At the end of the incubation, membranes were filtered onto unifilter (96-well white microplate with bonded GF/C filter preincubated 1 h in 0.1% PEI in wash buffer, Packard Bio-Science, Meriden, Conn.) with a Filtermate 96 harvester (Packard BioScience) and washed 3 times with cold 50 mM Tris-HCl, pH 7.4 buffer. Nonspecific binding was measured in the presence of 10 μM MPEP. The radioactivity on the filter was counted (3 min) on a Packard Top-count microplate scintillation counter with quenching correction after addition of 45 μl of microscint 40 (Canberra Packard S. A., Zürich, Switzerland) and shaking for 20 min.
For binding experiments the Ki values of the compounds tested are given. The Ki value is defined by the following formula: KiIC50/[1+L/Kd] in which the IC50 values are those concentrations of the compounds tested which cause 50% inhibition of the competing radioligand ([^3H]MPEP). L is the concentration of radioligand used in the binding experiment and the Kd value of the radioligand is empirically determined for each batch of membranes prepared.

T1 sequence (P41594 21-1180 isoform P41594-2 limits assumed): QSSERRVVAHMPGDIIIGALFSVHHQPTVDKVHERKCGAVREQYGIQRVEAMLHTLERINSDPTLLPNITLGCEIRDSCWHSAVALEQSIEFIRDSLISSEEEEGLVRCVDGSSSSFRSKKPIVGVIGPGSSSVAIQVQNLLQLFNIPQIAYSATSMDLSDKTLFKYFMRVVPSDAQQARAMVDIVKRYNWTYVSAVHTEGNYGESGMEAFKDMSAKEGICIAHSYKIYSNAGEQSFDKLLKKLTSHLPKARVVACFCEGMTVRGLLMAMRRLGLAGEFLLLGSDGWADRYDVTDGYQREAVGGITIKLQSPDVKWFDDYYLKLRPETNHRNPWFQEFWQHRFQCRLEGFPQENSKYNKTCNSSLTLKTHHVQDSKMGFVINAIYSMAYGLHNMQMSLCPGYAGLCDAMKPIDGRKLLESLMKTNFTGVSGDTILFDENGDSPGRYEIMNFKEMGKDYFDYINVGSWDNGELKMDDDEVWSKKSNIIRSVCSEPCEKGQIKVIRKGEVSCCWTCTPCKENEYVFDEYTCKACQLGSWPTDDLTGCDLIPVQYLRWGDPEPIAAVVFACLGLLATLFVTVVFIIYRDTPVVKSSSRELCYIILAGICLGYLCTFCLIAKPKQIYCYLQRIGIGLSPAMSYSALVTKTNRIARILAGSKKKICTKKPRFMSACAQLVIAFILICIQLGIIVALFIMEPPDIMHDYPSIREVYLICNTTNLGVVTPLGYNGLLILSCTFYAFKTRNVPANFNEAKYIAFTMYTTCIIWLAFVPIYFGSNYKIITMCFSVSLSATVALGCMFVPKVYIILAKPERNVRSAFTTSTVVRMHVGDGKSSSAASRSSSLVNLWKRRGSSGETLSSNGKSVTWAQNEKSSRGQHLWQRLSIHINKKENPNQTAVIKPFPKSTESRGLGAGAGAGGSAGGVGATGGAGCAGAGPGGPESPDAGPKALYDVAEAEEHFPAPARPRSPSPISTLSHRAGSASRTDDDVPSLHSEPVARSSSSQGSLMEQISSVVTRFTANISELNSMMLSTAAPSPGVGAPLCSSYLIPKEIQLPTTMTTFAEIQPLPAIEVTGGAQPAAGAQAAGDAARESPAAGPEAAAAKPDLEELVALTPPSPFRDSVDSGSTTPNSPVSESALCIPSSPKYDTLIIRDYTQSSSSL

Structure (SMILES) | pKi (head prints no unit) | pKi
Cc1cc(-c2cccc(F)c2)cc(C(=O)Nc2nc(C)cs2)n1 [Example 1, 4-(3-Fluoro-phenyl)-6-methyl-pyridine-2-carboxylic acid (4-methyl-thiazol-2-yl)-amide] | 8.52 | 
Cc1cc(-c2cc(F)cc(F)c2)cc(C(=O)Nc2nc(C)cs2)n1 [Example 2, 4-(3,5-Difluoro-phenyl)-6-methyl-pyridine-2-carboxylic acid (4-methyl-thiazol-2-yl)-amide] | 8.15 | 
Cc1cc(-c2cccc(C#N)c2)cc(C(=O)Nc2nc(C)cs2)n1 [Example 3, 4-(3-Cyano-phenyl)-6-methyl-pyridine-2-carboxylic acid (4-methyl-thiazol-2-yl)-amide] | 7.96 | 
Cc1cc(-c2ccc(Cl)nc2)cc(C(=O)Nc2nc(C)cs2)n1 [Example 4, 6-Chloro-6′-methyl-[3,4′]bipyridinyl-2′-carboxylic add (4-methyl-thiazol-2-yl)-amide] | 6.61 | 
Cc1cc(-c2cc(F)ccc2F)cc(C(=O)Nc2nc(C)cs2)n1 [Example 5, 4-(2,5-Difluoro-phenyl)-6-methyl-pyridine-2-carboxylic acid (4-methyl-thiazol-2-yl)-amide] | 7.54 | 
Cc1cc(-c2cccc(OC(F)(F)F)c2)cc(C(=O)Nc2nc(C)cs2)n1 [Example 7, 6-Methyl-4-(3-trifluoromethoxy-phenyl)-pyridine-2-carboxylic acid (4-methyl-thiazol-2-yl)-amide] | 7.85 | 
Cc1cc(-c2cccc(S(C)(=O)=O)c2)cc(C(=O)Nc2nc(C)cs2)n1 [Example 8, 4-(3-Methanesulfonyl-phenyl)-6-methyl-pyridine-2-carboxylic acid (4-methyl-thiazol-2-yl)-amide] | 6.40 | 
COc1ccc(-c2cc(C)nc(C(=O)Nc3nc(C)cs3)c2)cc1 [Example 9, 4-(4-Methoxy-phenyl)-6-methyl-pyridine-2-carboxylic acid (4-methyl-thiazol-2-yl)-amide] | 5.92 | 
Cc1cc(-c2ccc(F)c(F)c2)cc(C(=O)Nc2nc(C)cs2)n1 [Example 10, 4-(3,4-Difluoro-phenyl)-6-methyl-pyridine-2-carboxylic acid (4-methyl-thiazol-2-yl)-amide] | 7.64 | 
Cc1cc(-c2cc(F)c(F)c(F)c2)cc(C(=O)Nc2nc(C)cs2)n1 [Example 11, 6-Methyl-4-(3,4,5-trifluoro-phenyl)-pyridine-2-carboxylic acid (4-methyl-thiazol-2-yl)-amide] | 8.00 | 
Cc1cc(-c2ccc(C#N)cc2)cc(C(=O)Nc2nc(C)cs2)n1 [Example 12, 4-(4-Cyano-phenyl)-6-methyl-pyridine-2-carboxylic acid (4-methyl-thiazol-2-yl)-amide] | 6.60 | 
COc1ccccc1-c1cc(C)nc(C(=O)Nc2nc(C)cs2)c1 [Example 13, 4-(2-Methoxy-phenyl)-6-methyl-pyridine-2-carboxylic acid (4-methyl-thiazol-2-yl)-amide] | 7.60 | 
Cc1cc(-c2ccccc2Cl)cc(C(=O)Nc2nc(C)cs2)n1 [Example 14, 4-(2-Chloro-phenyl)-6-methyl-pyridine-2-carboxylic acid (4-methyl-thiazol-2-yl)-amide] | 8.40 | 
Cc1cc(-c2cccc(CO)c2)cc(C(=O)Nc2nc(C)cs2)n1 [Example 15, 4-(3-Hydroxymethyl-phenyl)-6-methyl-pyridine-2-carboxylic acid (4-methyl-thiazol-2-yl)-amide] | 7.77 | 
Cc1cc(-c2cccnc2)cc(C(=O)Nc2nc(C)cs2)n1 [Example 16, 6′-Methyl-[3,4′]bipyridinyl-2′-carboxylic acid (4-methyl-thiazol-2-yl)-amide] | 7.77 | 
Cc1cc(-c2cc(Cl)cc(Cl)c2)cc(C(=O)Nc2nc(C)cs2)n1 [Example 17, 4-(3,5-Dichloro-phenyl)-6-methyl-pyridine-2-carboxylic acid (4-methyl-thiazol-2-yl)-amide] | 8.70 | 
Cc1cc(-c2cncnc2)cc(C(=O)Nc2nc(C)cs2)n1 [Example 18, 6-Methyl-4-pyrimidin-5-yl-pyridine-2-carboxylic acid (4-methyl-thiazol-2-yl)-amide] | 6.91 | 
Cc1cc(-c2cncc(F)c2)cc(C(=O)Nc2nc(C)cs2)n1 [Example 19, 5-Fluoro-6′-methyl-[3,4′]bipyridinyl-2′-carboxylic acid (4-methyl-thiazol-2-yl)-amide] | 7.60 | 
Cc1cc(-c2cc(Cl)cc(Cl)c2)cc(C(=O)Nc2csc(C)n2)n1 [Example 20, 4-(3,5-Dichloro-phenyl)-6-methyl-pyridine-2-carboxylic acid (2-methyl-thiazol-4-yl)-amide] | 8.22 | 
Cc1cc(-c2cc(Cl)cc(Cl)c2)cc(C(=O)Nc2ccn(C)n2)n1 [Example 23, 4-(3,5-Dichloro-phenyl)-6-methyl-pyridine-2-carboxylic acid (1-methyl-1H-pyrazol-3-yl)-amide] |  | 8.40
Cc1cc(-c2ccc(F)cc2)cc(C(=O)Nc2cccc(Cl)c2)n1 [Example 26, 4-(4-Fluoro-phenyl)-6-methyl-pyridine-2-carboxylic acid (3-chloro-phenyl)-amide] |  | 6.54
Cc1cc(-c2ccc(F)cc2)cc(C(=O)Nc2nc(C)cs2)n1 [Example 27, 4-(4-Fluoro-phenyl)-6-methyl-pyridine-2-carboxylic acid (4-methyl-thiazol-2-yl)-amide] |  | 7.26
Cc1cc(NC(=O)c2cc(-c3ccc(F)cc3)cc(C)n2)ccn1 [Example 28, 4-(4-Fluoro-phenyl)-6-methyl-pyridine-2-carboxylic acid (2-methyl-pyridin-4-yl)-amide] |  | 6.39
Cc1cc(-c2ccc(F)cc2)cc(C(=O)Nc2ccn(C)n2)n1 [Example 29, 4-(4-Fluoro-phenyl)-6-methyl-pyridine-2-carboxylic acid (1-methyl-1H-pyrazol-3-yl)-amide] |  | 6.60
Cc1cc(-c2ccc(F)cc2)cc(C(=O)Nc2ccc(F)cn2)n1 [Example 30, 4-(4-Fluoro-phenyl)-6-methyl-pyridine-2-carboxylic acid (5-fluoro-pyridin-2-yl)-amide] |  | 6.55
Cc1cc(-c2ccc(F)cc2)cc(C(=O)Nc2ccnc(Cl)c2)n1 [Example 31, 4-(4-Fluoro-phenyl)-6-methyl-pyridine-2-carboxylic acid (2-chloro-pyridin-4-yl)-amide] |  | 6.21
Cc1cc(-c2ccc(F)cc2)cc(C(=O)Nc2ccnc(C)n2)n1 [Example 32, 4-(4-Fluoro-phenyl)-6-methyl-pyridine-2-carboxylic acid (2-methyl-pyrimidin-4-yl)-amide] |  | 6.30
Cc1csc(NC(=O)c2cc(-c3cc(F)cc(F)c3)nc(C)n2)n1 [Example 33, 6-(3,5-Difluoro-phenyl)-2-methyl-pyrimidine-4-carboxylic acid (4-methyl-thiazol-2-yl)-amide] |  | 7.85
Cc1nc(C(=O)Nc2csc(C)n2)cc(-c2cc(F)cc(F)c2)n1 [Example 34, 6-(3,5-Difluoro-phenyl)-2-methyl-pyrimidine-4-carboxylic acid (2-methyl-thiazol-4-yl)-amide] |  | 7.44
Cc1nc(C(=O)Nc2ccn(C)n2)cc(-c2cc(F)cc(F)c2)n1 [Example 35, 6-(3,5-Difluoro-phenyl)-2-methyl-pyrimidine-4-carboxylic acid (1-methyl-1H-pyrazol-3-yl)-amide] |  | 7.29
